Experimental data: PubChem BioAssay (NCI)
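In this assay, cells in 96-well plates receive the compound at five concentrations for 48 hours. Endpoints are linearly interpolated between the surrounding concentrations. GI50 marks 50% less growth. TGI denotes the concentration required for complete inhibition of growth.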

Each molecule was assayed on DMS 114 small cell lung (assay: NCI tumour cell line growth inhibition, 48 h).
With `O=S1(=O)c2ccccc2N=C(c2ccccc2Cl)CC1c1ccc(F)cc1` (stereo not given) the TGI was 41.1 µM.
`CC(/C=N/N=C(N)N)=N\N=C(N)N` was tested, and the GI50 was 95.4 µM and the TGI was 171 µM.
Work on `O=c1[nH]cc(C(F)(C(F)(F)F)C(F)(F)F)c(=O)[nH]1` yielded a TGI greater than 100 µM.
For `COc1ccc2c(c1)c1c3n2CCNN=C3CCC1`, the TGI was greater than 100 µM.
`CC(C)N1C(C)[C@@H](c2ccccc2)O[P@]1(=O)CC1=CCCCC1` (stereo not given in full) gave a TGI greater than 100 µM.
Molecule `COC(=O)C(=O)C(C(=O)C(=O)Nc1cc(Cl)c(Cl)cc1Cl)c1nc2ccc([N+](=O)[O-])cc2[nH]c1=O` (stereo not given) has a TGI greater than 100 µM.
With `COc1ccc(NC(=O)C2C(=O)N(c3ccc(OC)cc3)C(=O)/C2=N\NC(N)=O)cc1` (stereo not given) the TGI was greater than 100 µM.
Work on `C/C(=N\NS(=O)(=O)c1ccc([N+](=O)[O-])cc1)c1ccc[n+]([O-])n1` yielded a TGI of 4.75 µM.
`S=c1c2ccccc2c(=S)n2n1CC=CC2` showed a TGI greater than 100 µM.
With `CC(C)(C)Sc1nnc(SC(C)(C)C)c2c(=O)[nH]nc(SC(C)(C)C)c12` the TGI was 15.5 µM.
`CCCCNC1=C(C(=O)OCC)/C(=N/NC(=O)c2ccccc2O)CO1` gave a TGI greater than 100 µM.
`O=CCCCC(Sc1ccccc1)Sc1ccccc1` was tested, and the TGI was 49 µM.
In the case of `COC(=O)/C(=N\Nc1nnc(C)n1N)C(C#N)c1ccccc1` (stereo not given), the TGI is reported as 42.8 µM.
`COc1ccc(C)cc1C1CCC(=O)O1` (stereo not given) was tested, and the TGI was greater than 100 µM.
With `O=C1CCC(=O)c2sccc2N1` the TGI was greater than 100 µM.
`CCCCCCCCCCCCCCCCCC(=O)NCC(COP(=O)(O)O)OCC` (stereo not given) gave a TGI greater than 100 µM.
`Cn1nc(-c2ccccc2)c(C(=O)/C=C/c2ccc(Cl)cc2)c(N2CCCC2)c1=O` was tested, and the TGI was 9.8 µM.
Work on `O=C1C=Cc2ncccc2C1=O` yielded a TGI of 33.6 µM.
`C/C(CC(=O)Nc1cccc([N+](=O)[O-])c1)=N\NC(=O)CC#N` showed a TGI greater than 100 µM.
For `[CH3][Sn]1([CH3])[O]CC(COc2cc(Cl)c(Cl)cc2Cl)[O]1` (stereo not given), the GI50 was 50.1 µM and the TGI was greater than 100 µM.
For `CCc1cc(Cc2ccc(C)c(NC(=O)C(=O)C3C(=O)NC(=O)NC3=O)c2CC)cc(C)c1NC(=O)C(=O)C1C(=O)NC(=O)NC1=O`, the TGI was greater than 100 µM.
For `CC(=O)OC(=O)O/C=C\CCl`, the TGI was greater than 100 µM.
`CC(=O)c1c2c(cc3c1CC1(C3)Cc3cc4c(c(C(=O)O)c3C1)CCC4)CCC2` (stereo not given) gave a TGI greater than 100 µM.
`Cc1ccc(/C=N/NS(=O)(=O)c2ccccc2)c(C)c1` was tested, and the TGI was greater than 100 µM.
For `C#CCOCn1cnc2ncnc(N)c21`, the TGI was greater than 100 µM.
Work on `Cc1noc(/N=C2\C=C(Nc3onc(C)c3C)C(=O)c3ccccc32)c1C` yielded a TGI greater than 100 µM.

What follows are molecules tested on DMS 273 small cell lung (assay: NCI tumour cell line growth inhibition, 48 h).
`O=S1(=O)c2ccccc2N=C(c2ccccc2Cl)CC1c1ccc(F)cc1` (stereo not given) was tested, and the TGI was 45.3 µM.
Molecule `CC(/C=N/N=C(N)N)=N\N=C(N)N` has a TGI of 650 µM.
`CC1=CC(=O)NP(=O)(C23CC4CC(CC(C4)C2)C3)N1` (stereo not given) showed a TGI greater than 100 µM.
Work on `O=c1[nH]cc(C(F)(C(F)(F)F)C(F)(F)F)c(=O)[nH]1` yielded a TGI greater than 100 µM.
`COc1ccc2c(c1)c1c3n2CCNN=C3CCC1` was tested, and the TGI was greater than 100 µM.
With `COC(=O)C(=O)C(C(=O)C(=O)Nc1cc(Cl)c(Cl)cc1Cl)c1nc2ccc([N+](=O)[O-])cc2[nH]c1=O` (stereo not given) the TGI was greater than 100 µM.
`COc1ccc(NC(=O)C2C(=O)N(c3ccc(OC)cc3)C(=O)/C2=N\NC(N)=O)cc1` (stereo not given) was tested, and the TGI was greater than 100 µM.
In the case of `C/C(=N\NS(=O)(=O)c1ccc([N+](=O)[O-])cc1)c1ccc[n+]([O-])n1`, the TGI is reported as 2.74 µM.
Work on `S=c1c2ccccc2c(=S)n2n1CC=CC2` yielded a TGI greater than 100 µM.
In the case of `CC(C)(C)Sc1nnc(SC(C)(C)C)c2c(=O)[nH]nc(SC(C)(C)C)c12`, the TGI is reported as 21.3 µM.
For `N#CC(C(=O)CCCC(=O)Nc1ccc(Cl)cc1Cl)c1ccc(Cl)cc1` (stereo not given), the TGI was greater than 100 µM.
`O=CCCCC(Sc1ccccc1)Sc1ccccc1` gave a TGI of 33.9 µM.
`COC(=O)/C(=N\Nc1nnc(C)n1N)C(C#N)c1ccccc1` (stereo not given) was tested, and the TGI was greater than 100 µM.
`COc1ccc(C)cc1C1CCC(=O)O1` (stereo not given) showed a TGI greater than 100 µM.
For `Cc1ccc2nc(NC(=O)C(=O)CC(=O)c3cccc4ccccc34)sc2c1`, the TGI was greater than 100 µM.
`O=C1CCC(=O)c2sccc2N1` gave a TGI greater than 100 µM.
With `CCCCCCCCCCCCCCCCCC(=O)NCC(COP(=O)(O)O)OCC` (stereo not given) the TGI was greater than 100 µM.
Molecule `Cn1nc(-c2ccccc2)c(C(=O)/C=C/c2ccc(Cl)cc2)c(N2CCCC2)c1=O` has a TGI of 24.2 µM.
Molecule `O=C1C=Cc2ncccc2C1=O` has a TGI of 30.9 µM.
For `C/C(CC(=O)Nc1cccc([N+](=O)[O-])c1)=N\NC(=O)CC#N`, the TGI was greater than 100 µM.
`[CH3][Sn]1([CH3])[O]CC(COc2cc(Cl)c(Cl)cc2Cl)[O]1` (stereo not given) was tested, and the GI50 was greater than 100 µM and the TGI was greater than 100 µM.
`CCc1cc(Cc2ccc(C)c(NC(=O)C(=O)C3C(=O)NC(=O)NC3=O)c2CC)cc(C)c1NC(=O)C(=O)C1C(=O)NC(=O)NC1=O` gave a TGI greater than 100 µM.
In the case of `CC(=O)OC(=O)O/C=C\CCl`, the TGI is reported as greater than 100 µM.
With `CC(=O)c1c2c(cc3c1CC1(C3)Cc3cc4c(c(C(=O)O)c3C1)CCC4)CCC2` (stereo not given) the TGI was greater than 100 µM.
`Cc1ccc(/C=N/NS(=O)(=O)c2ccccc2)c(C)c1` gave a TGI greater than 100 µM.
`C#CCOCn1cnc2ncnc(N)c21` was tested, and the TGI was greater than 100 µM.
